Patent US20040186066A1, “Method of treatment with nelfinavir” (AGOURON PHARMACEUTICALS, INC., priority 2003, published 2004)
Structures can show the parent of a compound that is named as a salt. Where two headings read alike, the source gives them in different places.

How the values were obtained:
[1] = Example 2: phase 1 crossover 3×3 study, fixed kilocalorie meal at 20% and 50% fat, single-dose pharmacokinetics of nelfinavir 250 mg tablets; type: in vivo, human (normal, healthy volunteers); conditions: for AUC / AUC(0-inf) / Cmax / AUC(0-t) / half-life / Tmax: human, plasma, oral, 1250 mg; for AUC: read-out: Nelfinavir AUC24; for AUC(0-t): read-out: AUC(0-tlqc), least-squares mean
Method: A study was conducted as a phase 1, randomized, open-label, crossover 3×3 study, designed to evaluate the impact of a fixed kilocalorie meal at 20% and 50% fat content on single-dose pharmacokinetic parameters of the nelfinavir 250 mg tablet formulation in normal, healthy volunteers. Subjects were dosed with 1250 mg of nelfinavir 3 times at one-week intervals and 24-hour PK profiles were collected following each of the doses. Each subject was assigned three meals with different fat contents prior to dosing (fasting, 500kcal with 20% fat, 500 kcal with 50% fat) using a Latin square design. Twenty-four subjects entered the study and twenty-two subjects completed it. Each subject received the following treatment in random order on Days 1, 8 and 15: 5×250 mg nelfinavir tablets with fasting; 5×250 mg nelfinavir tablets, with a meal comprising 500Kcal/20% fat; and 5×250 mg nelfinavir tablets with a meal having 500 Kcal/50% fat. The moderate calorie/low fat meal consisted of 500 Kcal with 20% fat (11.3 grams of fat). The moderate calorie/high fat meal consisted of 500 Kcal with 50% fat (27.8 grams of fat). Subjects were administered nelfinavir 1250-mg (five 250-mg tablets) on the morning of the pharmacokinetic evaluations. The nelfinavir terminal half-life (t½) in plasma is typically 3.5 to 5 hours. […] Subjects participated on an outpatient basis; however, subjects were admitted to the in-patient facility the evening prior to each PK evaluation and remained in the in-patient facility for approximately 16 hours post-dosing. The subjects returned the next morning (8 hours later) for their last 24 hr. pharmacokinetic blood draw. All pharmacokinetic evaluations were performed in the in-patient facility. Blood samples were collected and analyzed for plasma concentrations of nelfinavir and M8. For the fasting evaluation, subjects were required to complete an overnight fast of at least 10 hours prior to dosing in the morning. For the fed PK evaluations, subjects were required to complete an overnight fast of at least 10 hours, prior to receiving the protocol-specific standardized breakfast meal. Subjects were given 30 minutes to complete their standardized breakfast meal. Dosing was performed in the morning, immediately following the subject's completion of the standardized breakfast meal and after the subject's predose PK specimen had been collected. Subjects could not ingest water 1 hour prior to or 1 hour after dosing. A standardized lunch was given at least 4 hours after the morning dose and a standardized dinner was given at least 10 hours after the morning dose. Actual sampling times were used for all data evaluation. Mean Cmax and AUC values were calculated as the antilogs of least-squares mean log-transformed values (analogous to geometric means). Ratios and confidence intervals for Cmax and AUC values are also based on log-transformed values. Mean values for all other pharmacokinetic parameters are least-squares means. Ratios and confidence intervals for these parameters are based on untransformed values. Blood samples, 5 mL each, were collected as in Example 1. The timing of each sample collection was as follows: Predose and at 0.5, 1, 2, 3, 4, 6, 8, 12, 16 and 24 hours postdose on Days 1, 8, and 15. All blood samples were kept at […] (using either wet ice or cryoblock) until centrifugation. Blood samples were centrifuged within 1 hour of collection, at 3000 rpm (approximately 2619×g) for 15 minutes, to separate the plasma. The plasma samples were split evenly into 2 aliquots and stored in appropriately labeled polypropylene transport tubes. Plasma was stored frozen at […] or lower until analysis. Pharmacokinetic parameter values were calculated from plasma nelfinavir and M8 concentration-time data using standard noncompartmental pharmacokinetic methods as in Example 1. Plasma concentrations of nelfinavir and M8 were measured by validated high-performance liquid chromatography (HPLC) methods. […]

[2] = light breakfast 350 kcal/13 g fat vs standard breakfast 800 kcal/35 g fat; cited from earlier work
[3] = Kcal/Fat % 500/20% relative to fasting
[4] = Kcal/Fat % 500/50% relative to fasting
[5] = nelfinavir, moderate calorie/high fat meal (500 Kcal/50% fat) vs fasting
[6] = nelfinavir, moderate calorie/low fat meal (500 Kcal/20% fat) vs fasting

For `Cc1c(O)cccc1C(=O)N[C@@H](CSc1ccccc1)[C@H](O)CN1C[C@H]2CCCC[C@H]2C[C@H]1C(=O)NC(C)(C)C` (relative stereo) [nelfinavir, [3S-(3R*, 4aR*, 8aR*, 2′S*, 3′S*)]-2-[2′ hydroxy-3′-phenylthiomethyl-4′-aza-5′-oxo-5′-(2″-methyl-3″-hydroxy-phenyl)pentyl]-decahydroiso-quinoline-3-N-t-butylcarboxamide methanesulfonic acid salt], the “Nelfinavir AUC24 (×fasting)” value [1, 3] was 3.2 X, the “Nelfinavir AUC∞ (×fasting)” value [1, 3] was 3.0 X and the “Nelfinavir Cmax (×fasting)” value [1, 3] was 2.5 X. For the same compound, the “Nelfinavir AUC24 (×fasting)” value [1, 4] was 5.2 X, the “Nelfinavir AUC∞ (×fasting)” value [1, 4] was 5.1 X and the “Nelfinavir Cmax (×fasting)” value [1, 4] was 3.8 X. It also gave an AUC ([1]; 1250 mg single dose, fasting) of 10000 ng·h/mL, an AUC(0-inf) ([1]; 1250 mg single dose, fasting, read-out: Nelfinavir AUC∞) of 10700 ng·h/mL and a Cmax ([1]; 1250 mg single dose, fasting, read-out: Nelfinavir Cmax) of 1630 ng/mL. It also gave an AUC ([1]; Kcal/Fat % 500/20%) of 32600 ng·h/mL, an AUC(0-inf) ([1]; Kcal/Fat % 500/20%, read-out: Nelfinavir AUC∞) of 32700 ng·h/mL and a Cmax ([1]; Kcal/Fat % 500/20%, read-out: Nelfinavir Cmax) of 4000 ng/mL. For the same compound, the AUC ([1]; Kcal/Fat % 500/50%) was 52600 ng·h/mL, the AUC(0-inf) ([1]; Kcal/Fat % 500/50%, read-out: Nelfinavir AUC∞) was 54600 ng·h/mL and the Cmax ([1]; Kcal/Fat % 500/50%, read-out: Nelfinavir Cmax) was 6200 ng/mL. For the same compound, the AUC(0-t) ([1]; nelfinavir, 5×250-mg tablets during moderate calorie/high fat meal (500 Kcal/50% fat)) was 52600 ng·h/mL, the AUC(0-inf) ([1]; nelfinavir, 5×250-mg tablets during moderate calorie/high fat meal (500 Kcal/50% fat), read-out: AUC(0-∞), least-squares mean) was 54600 ng·h/mL and the Cmax ([1]; nelfinavir, 5×250-mg tablets during moderate calorie/high fat meal (500 Kcal/50% fat), read-out: Cmax, least-squares mean) was 6160 ng/mL. The half-life ([1]; nelfinavir, 5×250-mg tablets during moderate calorie/high fat meal (500 Kcal/50% fat), read-out: t1/2 (terminal half-life), least-squares mean (converted)) was 3.43 h, the Tmax ([1]; nelfinavir, 5×250-mg tablets during moderate calorie/high fat meal (500 Kcal/50% fat), read-out: tmax, least-squares mean) was 4.48 h and the AUC(0-t) ([1]; nelfinavir, 5×250-mg tablets during moderate calorie/low fat meal (500 Kcal/20% fat)) was 32600 ng·h/mL. It also gave an AUC(0-inf) ([1]; nelfinavir, 5×250-mg tablets during moderate calorie/low fat meal (500 Kcal/20% fat), read-out: AUC(0-∞), least-squares mean) of 32700 ng·h/mL, a Cmax ([1]; nelfinavir, 5×250-mg tablets during moderate calorie/low fat meal (500 Kcal/20% fat), read-out: Cmax, least-squares mean) of 4040 ng/mL and a half-life ([1]; nelfinavir, 5×250-mg tablets during moderate calorie/low fat meal (500 Kcal/20% fat), read-out: t1/2 (terminal half-life), least-squares mean (converted)) of 3.08 h. The Tmax ([1]; nelfinavir, 5×250-mg tablets during moderate calorie/low fat meal (500 Kcal/20% fat), read-out: tmax, least-squares mean) was 4.19 h, the AUC(0-t) ([1]; nelfinavir, 5×250-mg tablets single dose, fasting (reference)) was 10000 ng·h/mL and the AUC(0-inf) ([1]; nelfinavir, 5×250-mg tablets single dose, fasting (reference), read-out: AUC(0-∞), least-squares mean) was 10700 ng·h/mL. The Cmax ([1]; nelfinavir, 5×250-mg tablets single dose, fasting (reference), read-out: Cmax, least-squares mean) was 1630 ng/mL, the half-life ([1]; nelfinavir, 5×250-mg tablets single dose, fasting (reference), read-out: t1/2 (terminal half-life), least-squares mean (converted)) was 4.1 h and the Tmax ([1]; nelfinavir, 5×250-mg tablets single dose, fasting (reference), read-out: tmax, least-squares mean) was 2.42 h. It also gave a half-life ([1]; nelfinavir, fasting subjects and test meals, similar, read-out: elimination t½, average (converted)) of about 4 h, a Tmax ([1]; nelfinavir, meal of 20% fat content (500 kcal), read-out: mean tmax longer relative to fasting subjects) of about 2 h and a Tmax ([1]; nelfinavir, meal of 50% fat content (500 kcal), read-out: mean tmax longer relative to fasting subjects) of about 2 h. For the same compound, the “AUC increase compared to the fasting AUC” value ([1]; nelfinavir, 500 Kcal, 50% fat breakfast) was 5.2 fold, the “AUC increase compared to the fasting AUC” value ([1]; nelfinavir, 500 kcal, 20% fat breakfast) was 3.2 fold and the “% coefficient of variation (CV) for AUC(0-∞)” value (“% coefficient of variation” below) ([1]; nelfinavir, fasting subjects) was 75%. The “bioavailability higher relative to fasting subjects, based on AUC(0-∞)” value ([1]; nelfinavir, meal containing 20% fat (500 kcal)) was “approximately 3 fold”, the “bioavailability higher relative to fasting subjects, based on AUC(0-∞)” value ([1]; nelfinavir, meal containing 50% fat (500 kcal)) was about 5 fold and the “mean Cmax higher relative to fasting” value ([1]; nelfinavir, meal of 20% fat content (500 kcal)) was “approximately 2.5 fold”. The “mean Cmax higher relative to fasting” value ([1]; nelfinavir, meal of 50% fat content (500 kcal)) was about 3.8 fold, the “AUC(0-tlqc) ratio (100% × test/reference)” value [1, 5] was 524% and the “AUC(0-∞) ratio (100% × test/reference)” value [1, 5] was 508%. The “Cmax ratio (100% × test/reference)” value [1, 5] was 378%, the “t1/2 ratio (100% × test/reference)” value [1, 5] was 83.7% and the “tmax ratio (100% × test/reference)” value [1, 5] was 186%. For the same compound, the “AUC(0-tlqc) ratio (100% × test/reference)” value [1, 6] was 325%, the “AUC(0-∞) ratio (100% × test/reference)” value [1, 6] was 305% and the “Cmax ratio (100% × test/reference)” value [1, 6] was 248%. For the same compound, the “t1/2 ratio (100% × test/reference)” value [1, 6] was 75.0%, the “tmax ratio (100% × test/reference)” value [1, 6] was 173% and the “% coefficient of variation” value ([1]; nelfinavir, test meal containing 20% fat) was 48%. The “% coefficient of variation” value ([1]; nelfinavir, test meal containing 50% fat) was 43%, the “AUC0-12h less with light breakfast than with standard breakfast” value [2] was 13% and the “effect of the two breakfasts on C1-hour post dose, Cmax and C12-hours” value [2] was “No significant effects”.
